Measurements published in PMC4583449, “Characterisation of (R)-2-(2-Fluorobiphenyl-4-yl)-N-(3-Methylpyridin-2-yl)Propanamide as a Dual Fatty Acid Amide Hydrolase: Cyclooxygenase Inhibitor” (PLoS ONE, 2015).

How the values were obtained:
RAW 264.7 cells [1] = experiment: Lipid profile (prostaglandins, 2-AG, AEA and related lipids) of RAW 264.7 cell extracts, UPLC-MS/MS; format: cell-based, mouse; conditions: 30 min; for Effect on levels of AEA and related N-acylethanolamines in the cells: LPS + INF-γ-treated, ionomycin (5 μM) treated cells, flurbiprofen and (R)-Flu-AM1 10 μM
RAW 264.7 cells [2] = experiment: [3H]AEA hydrolysis by intact RAW 264.7 cells; format: cell-based, mouse; conditions: LPS + INF-γ-treated cells; 100 nM [3H]AEA, 60 min; URB597 1 μM, flurbiprofen and (R)-Flu-AM1 10 μM
[3] = LPS + IFNγ 24 h, URB597 1 μM, flurbiprofen 10 μM, (R)-Flu-AM1 10 μM, median (range), n = 5–6
[4] = Treatment None (unstimulated), URB597 1 μM, flurbiprofen 10 μM, (R)-Flu-AM1 10 μM, median (range), n = 5–6

CC(C(=O)O)c1ccc(-c2ccccc2)c(F)c1 (stereo not drawn) [Flurbiprofen, flurbiprofen, reference compound]
Effect on basal and LPS + INF-γ-stimulated PGD2 and PGE2 production (RAW 264.7 cells [1]; 10 μM): blocked | Effect on levels of 2-AG in the cell extracts (RAW 264.7 cells [1]; 10 μM, unstimulated and LPS + INF-γ-treated): not affected | Effect on levels of AEA and related N-acylethanolamines in the cells (RAW 264.7 cells [1]; URB597 1 μM): did not affect | Effect on hydrolysis of exogenous [3H]AEA by intact cells (RAW 264.7 cells [2]): would not be expected, and this was found to be the case

NC(=O)c1cccc(-c2cccc(OC(=O)NC3CCCCC3)c2)c1 [URB597, cyclohexylcarbamic acid 3′-carbamoylbiphenyl-3-yl ester, reference compound]
2-AG level relative to vehicle None median (RAW 264.7 cells [1]; [3]): 0.90 (0.70–1.11) | 9,10,13-TriHOME level relative to vehicle None median (RAW 264.7 cells [1]; [3]): 1.08 (0.68–1.89) | 9,10-DiHOME level relative to vehicle None median (RAW 264.7 cells [1]; [3]): 0.76 (0.69–1.05) | 9,12,13-TriHOME level relative to vehicle None median (RAW 264.7 cells [1]; [3]): 1.08 (0.66–1.79) | 9-HODE level relative to vehicle None median (RAW 264.7 cells [1]; [3]): 1.11 (0.49–1.20) | 11-HETE level relative to vehicle None median (RAW 264.7 cells [1]; [3]): 13.0 (4.82–25.7) | 12(13)-EpOME level relative to vehicle None median (RAW 264.7 cells [1]; [3]): 1.24 (0.92–1.72) | 12(S)-HEPE level relative to vehicle None median (RAW 264.7 cells [1]; [3]): 0.59 (0.28–1.36) | 12,13-DiHOME level relative to vehicle None median (RAW 264.7 cells [1]; [3]): 0.93 (0.85–1.26) | 12-HETE level relative to vehicle None median (RAW 264.7 cells [1]; [3]): 0.61 (0.41–0.96) | 13-HODE level relative to vehicle None median (RAW 264.7 cells [1]; [3]): 1.16 (0.49–1.43) | 13-oxo-ODE level relative to vehicle None median (RAW 264.7 cells [1]; [3]): 1.52 (0.34–2.87) | 15-HETE level relative to vehicle None median (RAW 264.7 cells [1]; [3]): 4.58 (0.97–5.29) | AEA level relative to vehicle None median (RAW 264.7 cells [1]; [3]): 1.39 (1.26–1.58) | LEA level relative to vehicle None median (RAW 264.7 cells [1]; [3]): 1.06 (0.79–1.87) | OEA level relative to vehicle None median (RAW 264.7 cells [1]; [3]): 0.97 (0.74–1.96) | PEA level relative to vehicle None median (RAW 264.7 cells [1]; [3]): 0.97 (0.88–1.31) | PGD2 level relative to vehicle None median (RAW 264.7 cells [1]; [3]): 35.1 (19.4–117) | PGE2 level relative to vehicle None median (RAW 264.7 cells [1]; [3]): 10.6 (7.33–33.5) | SEA level relative to vehicle None median (RAW 264.7 cells [1]; [3]): 0.79 (0.67–1.28) | Effect on levels of AEA and related N-acylethanolamines in the cells (RAW 264.7 cells [1]; URB597 1 μM): modest effects | 2-AG level relative to vehicle None median (RAW 264.7 cells [1]; [4]): 1.10 (0.61–1.47) | 9,10,13-TriHOME level relative to vehicle None median (RAW 264.7 cells [1]; [4]): 1.13 (0.44–2.51) | 9,10-DiHOME level relative to vehicle None median (RAW 264.7 cells [1]; [4]): 1.10 (0.65–1.32) | 9,12,13-TriHOME level relative to vehicle None median (RAW 264.7 cells [1]; [4]): 1.23 (0.51–2.53) | 9-HODE level relative to vehicle None median (RAW 264.7 cells [1]; [4]): 1.14 (0.72–2.07) | 11-HETE level relative to vehicle None median (RAW 264.7 cells [1]; [4]): 1.12 (0–2.69) | 12(13)-EpOME level relative to vehicle None median (RAW 264.7 cells [1]; [4]): 1.07 (0.66–1.66) | 12(S)-HEPE level relative to vehicle None median (RAW 264.7 cells [1]; [4]): 0.59 (0–0.85) | 12,13-DiHOME level relative to vehicle None median (RAW 264.7 cells [1]; [4]): 1.15 (1.04–1.39) | 12-HETE level relative to vehicle None median (RAW 264.7 cells [1]; [4]): 0.94 (0.33–1.48) | 13-HODE level relative to vehicle None median (RAW 264.7 cells [1]; [4]): 1.42 (0.79–1.75) | 13-oxo-ODE level relative to vehicle None median (RAW 264.7 cells [1]; [4]): 1.40 (0.76–2.27) | 15-HETE level relative to vehicle None median (RAW 264.7 cells [1]; [4]): 1.02 (0.25–2.16) | AEA level relative to vehicle None median (RAW 264.7 cells [1]; [4]): 0.85 (0.45–1.18) | LEA level relative to vehicle None median (RAW 264.7 cells [1]; [4]): 0.79 (0.68–1.15) | PEA level relative to vehicle None median (RAW 264.7 cells [1]; [4]): 1.07 (0.87–1.28) | PGD2 level relative to vehicle None median (RAW 264.7 cells [1]; [4]): 1.37 (0.79–2.48) | PGE2 level relative to vehicle None median (RAW 264.7 cells [1]; [4]): 0.98 (0.49–1.81) | SEA level relative to vehicle None median (RAW 264.7 cells [1]; [4]): 0.80 (0.65–1.27) | Effect on hydrolysis of exogenous [3H]AEA by intact cells (RAW 264.7 cells [2]): completely blocked
